Columns and labels:
[1] = system: human B-cell lymphoma (Daudi) xenograft; experiment: Daudi xenograft model: IL-2 with CHOP and individual CHOP constituents (Example 2); format: in vivo, BALB/c nude mice; details: for Median Tumor Growth delay / Response rate (CR/PR): CR / Response rate (CR/PR): PR: Table 9, n = 10-20 mice/group; for CR/PR on day 28: CR: number of mice with complete response; for CR/PR on day 28: PR: number of mice with partial response; for Group Mean Days of Delay to 1000 mm^3: vs. control group
Procedure: (§1) Passaged, clonally derived Daudi cells (5×10^6 cells/mouse) were reconstituted with 50% Matrigel (BD Biosciences) in a total volume of 0.1 ml and implanted subcutaneously into the right flank of irradiated (3Gy) BALB/c nude mice. Treatments were initiated when the mean tumor volume was 150-300 mm^3. Mice were randomly assigned typically into 10 mice per group. […] Tumor volume is measured using calipers. Caliper measurements of tumors were converted into tumor volume (mm^3) using the formula: ½ (length (mm)×[width (mm)]^2). Tumor growth inhibition (TGI) was calculated as [1−(mean tumor volume of treated group/mean tumor volume of control group)×100]. […] Tumor growth delay (TGD) analysis was calculated as: [(number of days for a treated group to reach a mean tumor volume of 1000 mm^3)−(number of days for the control group to reach a mean tumor volume of 1000 mm^3)]. Percent conditional survival is the percent of mice in each group in which the tumor volume has not reached 1000 mm^3.
Athymic nude BALB/c mice (10 mice/group) were acclimated and irradiated mice were implanted with Daudi cells as described above. Treatment started when tumors were approximately 140 mm^3. This was designated study day 1.
Treatment groups were as follows:
Doxorubicin (H, adriamycin), 3.3 mg/kg, i.v, day 1;
Vincristine (O), 0.5 mg/kg, i.v, day 1;
Prednisone (P), 0.2 mg/kg p.o, days 1-5;
Proleukin® (IL-2), 1 mg/kg; s.c., thrice weekly for 4 weeks, total 12 doses;
Proleukin® (IL-2)+individual chemotherapeutics (as dosed individually, started on day 1);
Proleukin® (IL-2)+CHOP (similar dosing regimens to single agents, started on day 1).

[2] = system: Daudi lymphoma tumor model; experiment: Pooled Daudi xenograft studies and assessment of synergistic activity (Example 5); format: in vivo, BALB/c nude mice; details: pooled studies; for Tumor response CR / Tumor response PR: number of mice, (n) in cell; for Tumor response RR: response rate; for TGI: vs. vehicle
Procedure: as §1
(§2) Multiple comparisons were performed using one-way analysis of variance (ANOVA); post-test to compare different treatment means was done using Student-Newman Keuls test (SigmaStat). Tumor growth delay for each animal (time to 1000 mm^3) was used as the endpoint for conditional survival, and significance between treatments was analysed using a log rank test (Prism). Mice that had no visible tumors at necropsy upon termination of the study were considered censored in this analysis. Differences were considered statistically significant at p<0.05.
Several studies of these agents and combinations of these agents were performed in the Daudi lymphoma tumor model. The data from these multiple experiments were then pooled together for further analysis (Table 10). In vivo drug synergy was evaluated from the response index of combination treatments using multiple drug effect analyses.

[3] = Body weight, clinical observations and tolerability in Daudi tumor-bearing mice; details: Example 5
Procedure: (§3) Proleukin® treatment (1 mg/kg; s.c., thrice weekly) commenced either concomitantly (on day 8) or one week later (day 15) for a total of 4 weeks. […] Tumor volumes and body weights were measured two times per week. Clinical observations were noted.

[4] = system: human B-cell lymphoma (Daudi) xenograft; experiment: Daudi xenograft model of human B-cell lymphoma: IL-2/CHOP/rituximab regimens (Example 1); format: in vivo, BALB/c nude mice
Procedure: as §1, §2
See, e.g., Hudson et al., Leukemia (1998) 12:2029-2033 for a description of the Daudi xenograft model. The Daudi/BALB/c nude model expresses high levels of CD20 and is associated with a less aggressive/low grade disease profile. Furthermore, NK cells cannot lyse Daudi tumor cells in the absence of activation by cytokines such as IL-2. See, e.g., Damle et al., J. Immunol. (1987) 138:1779-1785.
120 athymic nude BALB/c mice were acclimated for 1 week to the inoculation of Daudi human B-cell lines. Daudi cells (5×10^6 cells/mouse) were implanted s.c. (right flank) into irradiated young nude mice (3Gy for approximately 3.2 minutes) with 50% matrigel at a volume of 0.1 ml and grown as subcutaneous tumors until tumor volume reached 110 mm^3. This was designated study day 1.
Clinical observations were noted.

[5] = mouse, in vivo
Procedure: as §3

Compound: O=P1(N(CCCl)CCCl)NCCCO1 (stereo not drawn) [Cyclophosphamide, cyclophosphamide]
- Median Tumor Growth delay [1]: 1 days
- Response rate (CR/PR): CR [1]: 0/0
- Response rate (CR/PR): PR [1]: 0/0
- CR/PR on day 28: CR [1]: 0/0
- CR/PR on day 28: PR [1]: 0/0
- Group Mean Days of Delay to 1000 mm^3 [1]: 1 days
- Growth delay [2]: 1 days
- Tumor response CR [2]: 0%; 0/0 (10)
- Tumor response PR [2]: 0%; 0/0 (10)
- Tumor response RR [2]: 0%; 0/0 (10)
- TGI [2]: 2%, p > 0.05

Compound: COc1cccc2c1C(=O)c1c(O)c3c(c(O)c1C2=O)C[C@@](O)(C(=O)CO)C[C@@H]3O[C@H]1C[C@H](N)[C@H](O)[C@H](C)O1 [Doxorubicin]
- Median Tumor Growth delay [1]: 2 days
- Response rate (CR/PR): CR [1]: 0/0
- Response rate (CR/PR): PR [1]: 0/0
- CR/PR on day 28: CR [1]: 0/0
- CR/PR on day 28: PR [1]: 0/0
- Group Mean Days of Delay to 1000 mm^3 [1]: 2 days
- Growth delay [2]: 2 days
- Tumor response CR [2]: 0%; 0/0 (10)
- Tumor response PR [2]: 0%; 0/0 (10)
- Tumor response RR [2]: 0%; 0/0 (10)
- TGI [2]: 9%, p > 0.05

Compound: C[C@]12C=CC(=O)C=C1CC[C@@H]1[C@@H]2C(=O)C[C@@]2(C)[C@H]1CC[C@]2(O)C(=O)CO [Prednisone]
- Median Tumor Growth delay [1]: 2 days
- Response rate (CR/PR): CR [1]: 1
- Response rate (CR/PR): PR [1]: 0
- CR/PR on day 28: CR [1]: 1
- CR/PR on day 28: PR [1]: 0
- Group Mean Days of Delay to 1000 mm^3 [1]: 2 days
- Growth delay [2]: 2 days
- Tumor response CR [2]: 1
- Tumor response PR [2]: 0
- Tumor response RR [2]: 10%
- TGI [2]: 10%, p > 0.05

Compound: CC[C@]1(O)C[C@H]2CN(CCc3c([nH]c4ccccc34)[C@@](C(=O)OC)(c3cc4c(cc3OC)N(C=O)[C@H]3[C@@](O)(C(=O)OC)[C@H](OC(C)=O)[C@]5(CC)C=CCN6CC[C@]43[C@@H]65)C2)C1 [Vincristine]
- Median Tumor Growth delay [1]: 12 days
- Response rate (CR/PR): CR [1]: 0/0
- Response rate (CR/PR): PR [1]: 0/0
- CR/PR on day 28: CR [1]: 0/0
- CR/PR on day 28: PR [1]: 0/0
- Group Mean Days of Delay to 1000 mm^3 [1]: 12 days
- Growth delay [2]: 12 days
- Tumor response CR [2]: 0%; 0/0 (10)
- Tumor response PR [2]: 0%; 0/0 (10)
- Tumor response RR [2]: 0%; 0/0 (10)

Compound: des-alanyl-1, serine-125 human interleukin-2 [IL-2]
- tolerability [3]: well-tolerated
- Median Tumor Growth delay [1]: 2 days
- Response rate (CR/PR): CR [1]: 0/0
- Response rate (CR/PR): PR [1]: 0/0
- CR/PR on day 28: CR [1]: 0/0
- CR/PR on day 28: PR [1]: 0/0
- Group Mean Days of Delay to 1000 mm^3 [1]: 2 days
- CR/PR day 29: CR ([4]; mouse, in vivo): 0/0
- CR/PR day 29: PR ([4]; mouse, in vivo): 0/0
- CR/PR day 164: CR ([4]; mouse, in vivo): 1/0
- CR/PR day 164: PR ([4]; mouse, in vivo): 1/0
- tumor growth / efficacy in words ([4]; mouse, in vivo): significantly inhibited tumor growth
- median conditional survival (days to 1000 mm3) ([4]; time for tumor to reach 1000 mm3): 25 days
- TGI day 29 ([4]; tumor growth inhibition vs. vehicle, day 29, n = 10): 33.52%
- % max BW. change (day, range) [5]: 12(+8 to +14) day 39%
- Clinical Observation [5]: BAR
- Growth delay [2]: 2 days
- Tumor response CR [2]: 2
- Tumor response PR [2]: 1
- Tumor response RR [2]: 5%
